The values that follow come from patent US12509459B2, “Inhibitors of NLRP3 inflammasome” (BioAge Labs, Inc., priority 2024, dated 2025).

NLRP3, sequence (Q96P20 whole entry): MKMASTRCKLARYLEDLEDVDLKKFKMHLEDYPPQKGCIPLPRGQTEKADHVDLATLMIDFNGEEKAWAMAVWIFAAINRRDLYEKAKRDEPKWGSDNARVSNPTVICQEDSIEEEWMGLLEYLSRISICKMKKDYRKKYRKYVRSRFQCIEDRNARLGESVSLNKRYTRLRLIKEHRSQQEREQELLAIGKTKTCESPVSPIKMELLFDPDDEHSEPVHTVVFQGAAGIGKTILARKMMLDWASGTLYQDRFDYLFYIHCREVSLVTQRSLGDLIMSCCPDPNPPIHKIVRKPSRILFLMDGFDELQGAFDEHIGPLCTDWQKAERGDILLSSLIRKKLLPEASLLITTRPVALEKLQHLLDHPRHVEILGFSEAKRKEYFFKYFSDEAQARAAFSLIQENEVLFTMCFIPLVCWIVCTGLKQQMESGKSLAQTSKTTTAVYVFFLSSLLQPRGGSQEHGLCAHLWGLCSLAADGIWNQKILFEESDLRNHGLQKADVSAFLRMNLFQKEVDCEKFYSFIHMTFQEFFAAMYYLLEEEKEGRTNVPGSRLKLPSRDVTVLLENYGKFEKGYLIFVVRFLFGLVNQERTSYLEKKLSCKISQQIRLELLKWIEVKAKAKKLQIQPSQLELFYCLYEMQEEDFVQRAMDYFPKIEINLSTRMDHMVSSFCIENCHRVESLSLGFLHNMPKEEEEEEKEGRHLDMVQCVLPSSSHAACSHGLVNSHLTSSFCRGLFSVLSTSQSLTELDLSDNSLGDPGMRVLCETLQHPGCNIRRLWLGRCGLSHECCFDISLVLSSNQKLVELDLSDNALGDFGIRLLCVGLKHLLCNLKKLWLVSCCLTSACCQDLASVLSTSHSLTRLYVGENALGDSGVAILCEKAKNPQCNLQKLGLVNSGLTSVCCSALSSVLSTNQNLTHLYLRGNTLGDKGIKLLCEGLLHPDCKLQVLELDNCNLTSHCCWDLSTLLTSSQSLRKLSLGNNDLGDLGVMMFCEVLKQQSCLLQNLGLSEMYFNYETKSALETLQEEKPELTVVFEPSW

In the test the target is NLRP3 (Homo sapiens, UniProt Q96P20). Put plainly: THP-1 cell-based NLRP3 activation assay. The arrangement: endogenous in cells; host or cells: THP-1 cells (PMA-differentiated, LPS-primed, nigericin-stimulated). The note with it: PMA-differentiated THP-1 cells, LPS 100 ng/mL then 10 μM nigericin. The protocol:
THP-1 cells are cultured in complete media (CM) until they reach logarithmic growth and achieve a viability >90%. CM is composed of RPMI-1640 (+Glutamax)/10% fetal bovine serum/55 μM β-mercaptoethanol/pen/strep. Cells are spun down and resuspended to 1,000,000 cells/mL in CM containing either 20 nM or 500 nM PMA. 150,000 cells (150 μL) are then added to each well of a 96-well TC plate and incubated for either 24 hr or 3 hr, respectively, in a standard cell culture incubator (37° C.; 5% CO2). After this incubation, the plate is tilted and media carefully removed. 200 μL of CM containing 100 ng/mL LPS is then added to the wells and the cells incubated an additional 3 hrs. The media is again removed and replaced with Opti-Mem medium containing pre-determined dilutions of test compounds in replicate wells. After a 30 min incubation, 10 μM nigericin (final concentration) in Opti-Mem medium with the corresponding concentration of compound is added to the wells for an additional 1 hr. Positive control wells contain 10 μM nigericin in Opti-Mem in the absence of test compound, while negative control wells contain Opti-Mem only. […] Once supernatants are removed, the relative viability of adherent cells in the 96-well TC plate are determined using a CellTiter-Glo® luminescent cell viability assay (Promega).
The compound `CCOc1cc(C(=O)N(C)[C@H](c2cncc3cn[nH]c23)[C@H]2CCNC2)ccc1-c1cccc(F)c1` (single isomer, unassigned) [Compound 085] showed a half-inhibitory concentration (IC50) below 100 nM. For the compound `CCOc1cc(C(=O)N(C)[C@@H](c2cncc3cn[nH]c23)[C@@H]2CCNC2)ccc1-c1cccc(F)c1` (single isomer, unassigned) [Compound 087], the IC50 is below 100 nM.

The compound `CCOc1cc(C(=O)N(C)[C@H](c2cncc3cn[nH]c23)[C@@H]2CCNC2)ccc1-c1cccc(F)c1` (single isomer, unassigned) [Compound 088] registered an IC50 of 100 to 500 nM. The result for `CCOc1cc(C(=O)N(C)[C@@H](c2cncc3cn[nH]c23)[C@H]2CCNC2)ccc1-c1cccc(F)c1` (single isomer, unassigned) [Compound 089] reads below 100 nM. The figure for `CCOc1cc(C(=O)N(C)[C@H](CO)c2cncc3cn[nH]c23)ccc1-c1cccc(F)c1` [Compound 001] is below 100 nM. The figure for `CCOc1cc(C(=O)N(C)[C@H](CO)c2cncc3cn[nH]c23)ccc1-c1cc(F)cc(F)c1` [Compound 002] is below 100 nM; for `CCOc1cc(C(=O)N(C)[C@H](CO)c2cncc3cn[nH]c23)ccc1-c1cc(C)cc(F)c1` [Compound 003] it is below 100 nM.

`CCOc1cc(C(=O)N(C)[C@H](CO)c2cncc3cn[nH]c23)ccc1-c1cccc(Cl)c1` [Compound 004] returned an IC50 below 100 nM. With `CCOc1cc(C(=O)N(C)[C@H](CO)c2cncc3cn[nH]c23)ccc1-c1ccccc1` [Compound 005], the half-inhibitory concentration (IC50) was below 100 nM. As to `CN(C(=O)c1ccc(-c2cccc(Cl)c2)c(OC2CC2)c1)[C@H](CO)c1cncc2cn[nH]c12` [Compound 006, (S)-3′-chloro-2-cyclopropoxy-N-(2-hydroxy-1-(1H-pyrazolo[4,3-c]pyridin-7-yl)ethyl)-N-methyl-[1,1′-biphenyl]-4-carboxamide], the IC50 was below 100 nM.

For the compound `CCOc1cc(C(=O)N(C)[C@H](C[C@H](C)O)c2cncc3cn[nH]c23)ccc1-c1cccc(Cl)c1` [Compound 008], the concentration for half-maximal inhibition (IC50) lay in the range of 1000 to 15000 nM. The figure for `CCOc1cc(C(=O)N(C)[C@@H](CCO)c2cncc3cn[nH]c23)ccc1-c1cccc(F)c1` [Compound 009] is below 100 nM; for `CCOc1cc(C(=O)N(C)[C@@H](CCO)c2cncc3cn[nH]c23)ccc1-c1ccccc1` [Compound 010] it is 1000 to 15000 nM; for `CN(C(=O)c1ccc(-c2cccc(F)c2)c(OC2CC2)c1)[C@@H](CCO)c1cncc2cn[nH]c12` [Compound 011] it is 1000 to 15000 nM. The result for `CN(C(=O)c1ccc(-c2cccc(Cl)c2)c(OC2CC2)c1)[C@@H](CCO)c1cncc2cn[nH]c12` [Compound 012] reads 100 to 500 nM. The figure for `CCOc1cc(C(=O)N(C)[C@H](COC)c2cncc3cn[nH]c23)ccc1-c1cccc(F)c1` [Compound 013] is below 100 nM. With `CCOc1cc(C(=O)N(C)[C@H](COC)c2cncc3cn[nH]c23)ccc1-c1cccc(Cl)c1` [Compound 014], the IC50 was below 100 nM.

As to `CCOc1cc(C(=O)N(C)[C@H](CCOC)c2cncc3cn[nH]c23)ccc1-c1cccc(F)c1` [Compound 015], the IC50 is below 100 nM. The figure for `CCOc1cc(C(=O)N(C)[C@H](CCOC)c2cncc3cn[nH]c23)ccc1-c1cccc(Cl)c1` [Compound 016] is above 15000 nM; for `CCOc1cc(C(=O)N(C)[C@H](CO)c2cnc(C)c3cn[nH]c23)ccc1-c1cccc(F)c1` [Compound 017] it is below 100 nM. The result for `CCOc1cc(C(=O)N(C)[C@H](CO)c2cnc(C)c3cn[nH]c23)ccc1-c1cc(F)cc(F)c1` [Compound 018] reads below 100 nM; that for `CCOc1cc(C(=O)N(C)[C@H](CO)c2cnc(C)c3cn[nH]c23)ccc1-c1cccc(Cl)c1` [Compound 019], below 100 nM. The result for `CCOc1cc(C(=O)N(C)[C@H](CO)c2cnc(C)c3cn[nH]c23)ccc1-c1ccccc1` [Compound 020] reads 100 to 500 nM.

`CCOc1cc(C(=O)N(C)[C@H](CO)c2cnc(C)c3cn[nH]c23)ccc1-c1cc(C)cc(F)c1` [Compound 021] registered an IC50 of 100 to 500 nM. Regarding `Cc1ncc([C@@H](CO)N(C)C(=O)c2ccc(-c3cccc(F)c3)c(OC3CC3)c2)c2[nH]ncc12` [Compound 022], the concentration for half-maximal inhibition (IC50) was below 100 nM. As to `CCOc1cc(C(=O)N(C)[C@@H](c2cnc(C)c3cn[nH]c23)[C@@H](C)O)ccc1-c1cccc(Cl)c1` [Compound 024], the IC50 is below 100 nM. As for `Cc1ncc([C@@H](CCO)N(C)C(=O)c2ccc(-c3cccc(Cl)c3)c(OC3CC3)c2)c2[nH]ncc12` [Compound 026], the concentration for half-maximal inhibition (IC50) is below 100 nM. The figure for `CCOc1cc(C(=O)N(C)[C@@H](CO)c2cnc(C)c3cn[nH]c23)ccc1-c1cccc(F)c1` [Compound 027] is below 100 nM. The result for `CCOc1cc(C(=O)N(C)[C@@H](CCO)c2cnc(C)c3cn[nH]c23)ccc1-c1ccccc1` [Compound 028] reads above 15000 nM; that for `CCOc1cc(C(=O)N(C)[C@@H](CCO)c2cnc(C)c3cn[nH]c23)ccc1-c1cccc(Cl)c1` [Compound 029], below 100 nM; that for `CCOc1cc(C(=O)N(C)[C@@H](CCO)c2cnc(C)c3cn[nH]c23)ccc1-c1cccc(C#N)c1` [Compound 030], above 15000 nM.

As for `Cc1ncc([C@H](CCO)N(C)C(=O)c2ccc(-c3cccc(F)c3)c(OC3CC3)c2)c2[nH]ncc12` [Compound 031], the concentration for half-maximal inhibition (IC50) is above 15000 nM. Turning to `CCOc1cc(C(=O)N(C)[C@H](CO)c2cnc(CC)c3cn[nH]c23)ccc1-c1cc(C)cc(F)c1` [Compound 032], the IC50 lay within 100 to 500 nM. The figure for `CCOc1cc(C(=O)N(C)[C@H](CO)c2cnc(CC)c3cn[nH]c23)ccc1-c1cccc(F)c1` [Compound 033] is below 100 nM; for `CCc1ncc([C@@H](CO)N(C)C(=O)c2ccc(-c3cccc(F)c3)c(OC3CC3)c2)c2[nH]ncc12` [Compound 034] it is above 15000 nM. The result for `CCc1ncc([C@@H](CO)N(C)C(=O)c2ccc(-c3cc(F)cc(F)c3)c(OC3CC3)c2)c2[nH]ncc12` [Compound 035] reads below 100 nM; that for `CCOc1cc(C(=O)N(C)[C@H](CO)c2cnc(CO)c3cn[nH]c23)ccc1-c1cccc(Cl)c1` [Compound 036], below 100 nM; that for `CCOc1cc(C(=O)N(C)[C@H](CO)c2cnc(CO)c3cn[nH]c23)ccc1-c1cccc(F)c1` [Compound 037], below 100 nM. Take `CCOc1cc(C(=O)N(C)[C@H](CCN)c2cncc3cn[nH]c23)ccc1-c1cccc(F)c1` [Compound 038]: the concentration for half-maximal inhibition (IC50) was below 100 nM.

Compound `CCOc1cc(C(=O)N(C)[C@H](CCNC)c2cncc3cn[nH]c23)ccc1-c1cccc(F)c1` [Compound 039] yielded an IC50 of 1000 to 15000 nM. In turn, `CCOc1cc(C(=O)N(CCO)Cc2cncc3cn[nH]c23)ccc1-c1cccc(F)c1` [Compound 041] yielded an IC50 below 100 nM. The compound `CCOc1cc(C(=O)N(CCO)Cc2cncc3cn[nH]c23)ccc1-c1cccc(Cl)c1` [Compound 042] registered a 50% inhibitory concentration (IC50) below 100 nM.

For `CCOc1cc(C(=O)N(CCO)Cc2cnc(N)c3cn[nH]c23)ccc1-c1cccc(C#N)c1` [Compound 043], the IC50 was 100 to 500 nM.

`CCOc1cc(C(=O)N(CCO)Cc2cnc(NC)c3cn[nH]c23)ccc1-c1cccc(C#N)c1` [Compound 044] had a concentration for half-maximal inhibition (IC50) of 100 to 500 nM. The figure for `CCOc1cc(C(=O)N(Cc2cnc(C)c3cn[nH]c23)C2CC2O)ccc1-c1cccc(F)c1` (stereo not drawn) [Compound 045] is below 100 nM; for `CCOc1cc(C(=O)N(CCO)Cc2cnc(N)c3cn[nH]c23)ccc1-c1cccc(Cl)c1` [Compound 046] it is below 100 nM.

`CCOc1cc(C(=O)N(CCO)Cc2cnc(N)c3cn[nH]c23)ccc1-c1cccc(F)c1` [Compound 047] gave a half-inhibitory concentration (IC50) of 100 to 500 nM. Compound `CCOc1cc(C(=O)N(CCO)Cc2cnc(NC)c3cn[nH]c23)ccc1-c1cccc(F)c1` [Compound 048] displayed an IC50 below 100 nM.

The compound `CCOc1cc(C(=O)N(CCO)Cc2cnc(NC)c3cn[nH]c23)ccc1-c1cccc(Cl)c1` [Compound 049] displayed a 50% inhibitory concentration (IC50) below 100 nM.

`CCOc1cc(C(=O)N(CCO)Cc2cnc(CNC)c3cn[nH]c23)ccc1-c1cccc(F)c1` [Compound 050] had an IC50 of 1000 to 15000 nM. The figure for `CCOc1cc(C(=O)N(CCO)Cc2cnc(C)c3cn[nH]c23)ccc1-c1cccc(F)c1` [Compound 051] is below 100 nM; for `CCOc1cc(C(=O)N(Cc2cnc(C)c3cn[nH]c23)C(C)CO)ccc1-c1cccc(F)c1` (stereo not drawn) [Compound 052] it is above 15000 nM; for `CCOc1cc(C(=O)N(Cc2cnc(C)c3cn[nH]c23)CC(C)(C)O)ccc1-c1cccc(F)c1` [Compound 053] it is below 100 nM. The result for `CCOc1cc(C(=O)N(Cc2cnc(C)c3cn[nH]c23)C2COC2)ccc1-c1cccc(F)c1` [Compound 054] reads above 15000 nM; that for `CCOc1cc(C(=O)N(CCN)Cc2cncc3cn[nH]c23)ccc1-c1cccc(F)c1` [Compound 055], below 100 nM; that for `CCOc1cc(C(=O)N(Cc2cnc(C)c3cn[nH]c23)[C@H]2CC[C@@H]2O)ccc1-c1cccc(F)c1` [Compound 056], below 100 nM. The result for `CCOc1cc(C(=O)N(Cc2cnc(C)c3cn[nH]c23)[C@@H]2CC[C@H]2O)ccc1-c1cccc(F)c1` [Compound 057] reads 100 to 500 nM.
